Measured values: US20190105337A1, “METHODS OF TREATING BACTERIAL INFECTIONS” (priority 2015, published 2019)
Read-outs that look alike come from different tables or passages of the source.

Legend:
clinical [1] = conditions: human, in vivo
Method: All infusions were administered over 3 hours. Intensive plasma and urine PK sampling was obtained after dosing and assayed using validated HPLC/MS methods.

[2] = human, in vivo
Method: Forty one subjects were enrolled in 5 groups based on their degree of renal insufficiency. The five cohorts included: patients with normal renal function (CrCl≥90 ml/min), mild renal impairment (CrCl 60-89 ml/min), moderate renal impairment (CrCl 30-<60 ml/min), severe renal impairment (CrCl<30 ml/min, and patients with end stage renal disease requiring hemodialysis. Patients on renal replacement therapy other than standard hemodialysis (including continuous veno-venous hemofiltration, continuous veno-venous hemodialysis and continuous renal replacement therapy) were not studied.

Plasma protein binding = format: in vitro ADME
[3] = Example 6: noncompartmental plasma pharmacokinetics after third dose of the Combination (2 g meropenem/2 g Compound I q8h); conditions: for AUC(0-t) / clearance / Cmax / Tmax / half-life: both, human, plasma, intravenous; for AUC(0-t): AUC0-8, meropenem 2 g q8h; for clearance: CL; for clearance / Cmax / Tmax / Vss: meropenem 2 g q8h; for half-life: t1/2, meropenem 2 g q8h
Method: (§1) A total of twenty-five (n=25) male and female subjects who met the study entry criteria and completed all phases of the pharmacokinetic study were included in this pharmacokinetic analysis. […] Blood samples were collected to measure drug concentrations in plasma prior to (time 0), and at 1.5, 2.95, 3.083, 3.25, 3.5, 4, 6, and 8 hours after the start of a 3-hour intravenous infusion of the third combination dose.
(§2) (Reports MC14B-0013, MC14B-0015, MC14I-011, and MC14I-0012). The urea concentrations in plasma and BAL were performed with a microplate-based method with an 0-phthalaldehyde chromogenic solution at MicroConstants, Inc., San Diego, Calif.
Peak plasma concentration (Cmax) and time to Cmax (Tmax) were read from the observed plasma concentration-time profile after the start of the intravenous infusion of the third Combination dose. Area under the plasma concentration-time curve over 8 hours (AUC0-8) after the third dose was calculated with the linear-log trapezoidal rule (WinNonlin®, version 6.3, Pharsight Corporation, Cary, N.C.). The elimination rate constant (β) was determined by nonlinear least-squares regression. Elimination half-life (t½) was calculated by dividing β into the natural logarithm of two.

clinical [4] = conditions: both, human, in vivo
Method: as §1
Urea has been commonly used as an endogenous marker to estimate the apparent volume of ELF. Blood samples to determine plasma urea concentrations were obtained just prior to scheduled bronchoscopy. Aliquots of BAL were obtained to determine urea concentrations in BAL and cell count with differential. The standardized bronchoscopy with BAL procedure for the collection of intrapulmonary samples has been previously described in the references listed below.
as §2
The calculations of ELF volume and drug concentrations in ELF and AM were performed with BAL supernatant and pulmonary (alveolar) cells (“cell pellet”) from aspirates recovered from the 2nd, 3rd, and 4th instillations (BAL2). The concentration of drug (ABXELF) in the epithelial lining fluid (ELF) was determined as follows:
[…]
VELF is derived from the following:
where UreaBAL is the concentration of urea in BAL fluid and UreaP is the concentration of urea in plasma.
The concentration of drug (ABXAM) in the alveolar cells (AC) was determined as follows:
Differential cell count was performed to determine the number of macrophages present. A mean macrophage cell volume of 2.42 μl/106 cells was used in the calculations for volume of alveolar cells in the pellet suspension.
The concentration ratios of ELF and AM to the simultaneous plasma concentrations were calculated for each subject and summarized for each group at each sampling time. […] The 8-hour sampling time was also used as a value at time zero for determining the area term of plasma, ELF, and AM. The AUC0-8 for each matrix was determined with the linear trapezoidal method. The ratio of AUC0-8 of ELF to plasma and AM to plasma were calculated.

[5] = Ratio of ELF to total Plasma concentration

## C[C@@H](O)[C@H]1C(=O)N2C(C(=O)O)=C(S[C@@H]3CN[C@H](C(=O)N(C)C)C3)[C@H](C)[C@H]12 [meropenem, Meropenem]
Clinical [1]
  AUC(0-∞): 130.34 µg·h/mL
  Cmax: 42540 ng/mL
Clinical [1]; Half-Life
  half-life: 0.98 h
Clinical [1]; Plasma Clearance
  clearance: 334 mL/min
Clinical [1]; Vss
  Vd: 25.9 L
[2]
  non-renal clearance: non-renal clearance assumes a greater proportion of total clearance
Plasma protein binding
  fraction unbound: 0.94
Plasma protein binding; human
  fraction unbound: 0.98
[3]; 1.5-hour BAL Sampling Group
  AUC(0-t): 168 ± 41.7 µg·h/mL
  clearance: 208 mL/min
  Cmax: 56900 ± 19300 ng/mL
  Tmax: 2.95 ± 0.01 h
  half-life: 0.98 ± 0.05 h
  Vss: 17.5 ± 2.5 L
[3]; 3.25-hour BAL Sampling Group
  AUC(0-t): 184 ± 29.7 µg·h/mL
  clearance: 185 mL/min
  Cmax: 57900 ± 7500 ng/mL
  Tmax: 3 ± 0.07 h
  half-life: 1.04 ± 0.13 h
  Vss: 16.7 ± 2.6 L
[3]; 4-hour BAL Sampling Group
  AUC(0-t): 196 ± 33.5 µg·h/mL
  clearance: 175 mL/min
  Cmax: 59600 ± 7400 ng/mL
  Tmax: 2.98 ± 0.06 h
  half-life: 1.07 ± 0.15 h
  Vss: 15.3 ± 2.1 L
[3]; 6-hour BAL Sampling Group
  AUC(0-t): 197 ± 38.7 µg·h/mL
  clearance: 173 mL/min
  Cmax: 59400 ± 11500 ng/mL
  Tmax: 2.98 ± 0.06 h
  half-life: 1.12 ± 0.24 h
  Vss: 16.1 ± 3.4 L
[3]; 8-hour BAL Sampling Group
  AUC(0-t): 182 ± 28.7 µg·h/mL
  clearance: 187 mL/min
  Cmax: 57300 ± 9000 ng/mL
  Tmax: 2.98 ± 0.06 h
  half-life: 0.96 ± 0.13 h
  Vss: 15.6 ± 2.8 L
[3]; All Subjects
  AUC(0-t): 186 ± 33.6 µg·h/mL
  clearance: 185 mL/min
  Cmax: 58200 ± 10800 ng/mL
  Tmax: 2.98 ± 0.06 h
  half-life: 1.03 ± 0.15 h
  Vss: 16.3 ± 2.6 L
Clinical [4]; AUC0-8 based on mean ELF concentrations
  AUC(0-t): 112 µg·h/mL
Clinical [4]; AUC0-8 based on median ELF concentrations
  AUC(0-t): 102 µg·h/mL
Clinical [4]; Concentration in ELF
  concentration at 1.5 h: 21400 ± 4000 ng/mL
  concentration at 3.25 h: 28300 ± 6700 ng/mL
  concentration at 4 h: 16100 ± 4800 ng/mL
  concentration at 6 h: 7520 ± 5290 ng/mL
  concentration at 8 h: 2510 ± 1130 ng/mL
Clinical [4]; Concentration in Plasma
  concentration at 1.5 h: 41200 ± 5000 ng/mL
  concentration at 3.25 h: 47700 ± 7300 ng/mL
  concentration at 4 h: 23800 ± 4300 ng/mL
  concentration at 6 h: 7240 ± 2790 ng/mL
  concentration at 8 h: 1360 ± 510 ng/mL
Clinical [4]; [5]
  Kp at 1.5 h: 0.525 ± 0.107
  Kp at 3.25 h: 0.59 ± 0.079
  Kp at 4 h: 0.705 ± 0.302
  Kp at 6 h: 1.04 ± 0.475
  Kp at 8 h: 2.13 ± 1.37
Clinical [4]; intrapulmonary penetration based on AUC0-8 of ELF and total plasma concentrations
  Kp: ~0.63
Clinical [4]; intrapulmonary penetration, unbound plasma concentrations
  Kp: 0.65
Clinical [4]; mean ratios of ELF to simultaneous plasma concentrations (range)
  Kp: 0.525 to 2.13
Clinical [4]; ratio of ELF to total plasma concentrations based on mean AUC0-8
  Kp: 0.63
Clinical [4]; ratio of ELF to total plasma concentrations based on median AUC0-8
  Kp: 0.58
Clinical [4]; ratio of ELF to unbound plasma concentrations based on mean AUC0-8
  Kp: 0.65
Clinical [4]; ratio of ELF to unbound plasma concentrations based on median AUC0-8
  Kp: 0.59
